Literature values as cited in patent US20050065125A1, “2-alkylidene-19-nor-vitamin D derivatives for the treatment of osteopenia or male osteoporosis” (Pfizer Inc, priority 2003, published 2005).

Details: chronic mode, 7 days, rats

| Structure (SMILES) | Bone calcium mobilization (serum calcium) activity relative to the native hormone 1,25-(OH)2D3 |
| --- | --- |
| C=C1[C@H](O)CC(=C/C=C2\CCC[C@]3(C)[C@@H]([C@H](C)CCCC(C)(C)O)CC[C@@H]23)C[C@H]1O [2-Methylene-19-Nor-1,25-(OH)2D3, 1α,25-dihydroxy-2-methylene-19-nor-vitamin D3] | 10-100 times |
| C=C1[C@H](O)CC(=C/C=C2\CCC[C@]3(C)[C@@H]([C@@H](C)CCCC(C)(C)O)CC[C@@H]23)C[C@H]1O [2-Methylene-19-Nor-20S-1,25-(OH)2D3, (20S)-1α,25-dihydroxy-2-methylene-19-nor-vitamin D3] | at least 10 times |
